“Also recorded” adds a separate entry of the source.
How the values were obtained:
HCT116 cells [1] = assay: Reactive oxygen species (ROS) detection by flow cytometry, Mito Sox Red, HCT116 cells; assay type: cell-based, human; conditions: VC or D-VC 1 mM, ATO 5 μM
Procedure: FIG. 4: Detection of reactive oxygen species (ROS) by flow cytometry. HCT116 cells were treated with the indicated compounds as described in the FIG. 1 and analyzed by flow cytometry to detect the presence of reactive oxygen species by Mito Sox Red reagent. Mito Sox Red is a reagent from Invitrogen™ catalog #LSM360084
FIG. 5: Graphical representation of the presence of reactive oxygen species (ROS) as detected by flow cytometry. The ROS detection data shown in the FIG. 4 is presented as a graph.
It was anticipated that the cause of cytotoxic stress and apoptosis was the accumulation of reactive oxygen species (ROS), so HCT116 cells were treated as above and assayed for the presence of ROS by flow cytometry (FIG. 4). […] Treatment with 5 μM ATO increased the cells showing ROS accumulation to 26% (FIGS. 4 and 5).

HCT116 cells [2] = assay: Apoptosis flow cytometric assay, Annexin V FITC, HCT116 cells; assay type: cell-based, human; conditions: HCT116, 72 hours; VC or D-VC 1 mM, ATO 5 μM
Procedure: FIG. 2: Apoptotic flow cytometric analysis of HCT116 cancer following drug treatments. HCT116 cells were treated with the drugs as described in the FIG. 1 and following treatments the cells were stained with Annexin-V FITC and sorted.
FIG. 3: Graphical representation of apoptosis by flow cytometry data. Apoptotic flow cytometric data shown in the FIG. 2 is presented as a graph.

HCT116 xenograft tumors = assay: HCT116 (KRAS mutant) xenograft tumors in nude mice; assay type: in vivo; conditions: VC or D-VC 1.5 g/kg, ATO 7 mg/kg; for effect on tumor growth compared to PBS (control) injections: 15 injections; for scarring on tumors (mice with scarring): 5 mice per group; for tumor weight compared to PBS treated tumors: after 15 injections, one way ANOVA
Procedure: Pictured are the xenograft tumors of each of the 5 mice per treatment condition. Mice were injected intraperitoneally with PBS (control), Vitamin C (1.5 g/kg), D-Vitamin C (1.5 g/kg), ATO 7 mg/kg), ATO (7 mg/kg)+Vitamin C (1.5 g/kg) or ATO (7 mg/kg)+D-Vitamin C (1.5 g/kg). Mice were injected daily for 6 days and after 6th injection mice were rested for one day.
Pictured are the xenograft tumors of each of the 5 mice per treatment condition as described in FIG. 6 after 12 injections (2 weeks of treatment).
To avoid glucose fluctuations in blood, the food was withdrawn from mice 2 hrs prior drug injections and food was given back to mice after 2 hrs of the VC or D-VC injection.
1.5 million human HCT116 (KRAS mutant) cancer cells were injected into nude mice, 5 mice per experimental group. After 10 days, and after when tumors reached at least 0.8 cm in size, mice were injected daily with either PBS, PBS+1.5 g/kg vitamin C, PBS+7 mg/kg ATO. PBS+7 mg/kg ATO+1.5 g/kg vitamin C, PBS+1.5 g/kg D-Vitamin C, or PBS+7 mg/kg ATO+1.5 g/kg D-Vitamin C. The mice were injected daily, 6 times per week, and rested one day per week, for a total of 15 total drug injections. […] Initially, ATO was injected at 3 mg/kg, while vitamin C or D-VC were injected at 1 g/kg. The following day, ATO was used at 7 mg/kg, while vitamin C and D-VC were used at […].
The injection scheme was ATO injection/2 hour gap/vitamin C or D-VC injection. […] Further, it is also known that the effect of vitamin C treatment on KRAS mutant cancer cells is glucose dependent, To avoid glucose fluctuations in the blood and enhance the effect of vitamin C and D-VC, the drug injections were performed following withdrawal of the food from mice 2 hours prior ATO injections, and the food was only provided again 2 hours following the vitamin C or D-VC injections.

HCT116 cancer cells = assay: Cytotoxicity in colorectal HCT116 cancer cells, 72 hours treatment (cell images); assay type: cell-based, human; conditions: HCT116, 72 hours; VC or D-VC 1 mM, ATO 5 μM; compared to buffer
Procedure: Colorectal HCT116 cancer cells were treated with the indicated solutions for 72 hours: control (phosphate buffered saline, PBS, was added to the culture medium in 1:1000 dilution), VC 1 mM (Vitamin C was used at 1 mM concentration), D-VC 1 mM (D-Vitamin C was used at 1 mM concentration), ATO 5 μM (Arsenic Trioxide was used at 5 μM concentration) and the combination of VC 1 mM with ATO 5 μM or D-VC 1 mM with ATO 5 μM. The cell images are shown with the labeling indicating cell treatments.
Colorectal HCT116 cancer cells were treated for 72 hours with PBS, a 1 mM Vitamin C (VC) solution, 1 mM D-Vitamin CVC (D-VC also referred as D-ascorbic acid), 5 μM arsenic trioxide (ATO), Vitamin C and ATO (VC/ATO), or D-VC and ATO (D-VC/ATO) (FIG. 1).

[3] = after 12 injections (2 weeks of treatment)

Molecule | cells accumulating ROS (HCT116 cells [1]) | apoptosis (Annexin V FITC) (HCT116 cells [2]) | effect on tumor growth compared to PBS (control) injections (HCT116 xenograft tumors) | scarring on tumors (mice with scarring) (HCT116 xenograft tumors; after 9 injections / within the first week of injections, intraperitoneally) | scarring on tumors (mice with scarring) (HCT116 xenograft tumors; [3]) | tumor weight compared to PBS treated tumors (HCT116 xenograft tumors) | cytotoxicity (HCT116 cancer cells)
O=C1O[C@@H]([C@H](O)CO)C(O)=C1O [D-VC, D-ascorbic acid] | about 5% | level of apoptosis similar to the buffer control | inhibitory effect on tumor growth; also recorded: appeared to be more effective alone but its effect was not consistent | 2/5 | 2/5 | lower compared to the PBS treated tumors, however these differences were not statistically significant | 
O=C1O[C@H]([C@@H](O)CO)C(O)=C1O [VC, L-ascorbic acid] | about 5% | level of apoptosis similar to the buffer control | inhibitory effect on tumor growth |  |  | lower compared to the PBS treated tumors, however these differences were not statistically significant | 
arsenic trioxide [ATO] | 26% | low increase in apoptosis over the buffer control | inhibitory effect on tumor growth |  | 2/5 | lower compared to the PBS treated tumors, however these differences were not statistically significant | mild cytotoxic impact
